Experiment [1] in a line: bead-based luminescence quenchers, dual-tagged ARNT – biochemical, AlphaScreen, cherry-pick, artefact control for ARNT-TACC3 interaction inhibitor project, dose response (AID 651705).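 Further: AlphaScreen bead proximity signal that flags compounds interfering with the detection technology; potency reflects signal decrease which marks the compound as an assay artifact.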 Format: functional. In general terms: In Alpha technology, singlet oxygen from a donor bead excites a nearby acceptor bead.
Experiment [2] has as its target T1, Corticotropin-releasing factor receptor 2/Corticotropin-releasing factor-binding protein (Homo sapiens, UniProt P24387+Q13324).
T1 sequence (Q13324 whole entry): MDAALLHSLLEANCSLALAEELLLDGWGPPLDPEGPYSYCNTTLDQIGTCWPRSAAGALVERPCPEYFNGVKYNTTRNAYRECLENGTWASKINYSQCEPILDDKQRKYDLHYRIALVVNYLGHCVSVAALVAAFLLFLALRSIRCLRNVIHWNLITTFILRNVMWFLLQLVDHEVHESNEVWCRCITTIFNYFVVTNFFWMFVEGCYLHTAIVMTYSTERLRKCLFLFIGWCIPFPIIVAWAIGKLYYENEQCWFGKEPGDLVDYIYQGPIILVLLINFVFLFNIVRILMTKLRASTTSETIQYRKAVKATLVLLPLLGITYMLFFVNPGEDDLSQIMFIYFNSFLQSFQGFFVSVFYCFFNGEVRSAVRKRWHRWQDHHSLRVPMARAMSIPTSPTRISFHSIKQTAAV
T1 sequence (P24387 whole entry): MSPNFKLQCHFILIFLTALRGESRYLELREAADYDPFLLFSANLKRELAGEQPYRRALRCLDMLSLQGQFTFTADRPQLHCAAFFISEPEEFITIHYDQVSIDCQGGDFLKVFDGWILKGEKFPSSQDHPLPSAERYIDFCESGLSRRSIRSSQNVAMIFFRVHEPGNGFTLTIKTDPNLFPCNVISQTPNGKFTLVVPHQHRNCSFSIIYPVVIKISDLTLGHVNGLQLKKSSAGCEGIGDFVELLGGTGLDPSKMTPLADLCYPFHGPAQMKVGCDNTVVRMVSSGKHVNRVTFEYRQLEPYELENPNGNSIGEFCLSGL
The experiment can be described thus: Dose Response confirmation of uHTS hits for small molecule antagonists of the CRF-binding protein and CRF-R2 receptor complex. It counts as functional. Particulars: read-out: IC50_Mean.

A short description of experiment [3]: blockers of CRF-binding protein–CRF-R2 complex – cell-based, uHTS hits, 384-well, dose response (AID 651639). Format: functional, Homo sapiens. Particulars: read-out: IC50_Mean.
Experiment [4] concerns the target T1, Corticotropin-releasing factor receptor 2/Corticotropin-releasing factor-binding protein. The experiment can be described thus: activators of CRF receptor 2 with binding protein – uHTS hits, confirmation (AID 602473). Particulars: read-out: EC50_Mean. It counts as functional.
For experiment [5], the target named is T2, Probable nicotinate-nucleotide adenylyltransferase (Staphylococcus aureus (strain N315), UniProt P65502). Format: functional, Staphylococcus aureus subsp. aureus N315. Particulars: read-out: IC50_Mean.
In experiment [6] the target is T2, Probable nicotinate-nucleotide adenylyltransferase. It counts as functional, Staphylococcus aureus subsp. aureus N315.
Experiment [7] concerns the target T3, Adenosylmethionine-8-amino-7-oxononanoate aminotransferase (Mycobacterium tuberculosis, UniProt P9WQ81).
T3 sequence (P9WQ81 whole entry): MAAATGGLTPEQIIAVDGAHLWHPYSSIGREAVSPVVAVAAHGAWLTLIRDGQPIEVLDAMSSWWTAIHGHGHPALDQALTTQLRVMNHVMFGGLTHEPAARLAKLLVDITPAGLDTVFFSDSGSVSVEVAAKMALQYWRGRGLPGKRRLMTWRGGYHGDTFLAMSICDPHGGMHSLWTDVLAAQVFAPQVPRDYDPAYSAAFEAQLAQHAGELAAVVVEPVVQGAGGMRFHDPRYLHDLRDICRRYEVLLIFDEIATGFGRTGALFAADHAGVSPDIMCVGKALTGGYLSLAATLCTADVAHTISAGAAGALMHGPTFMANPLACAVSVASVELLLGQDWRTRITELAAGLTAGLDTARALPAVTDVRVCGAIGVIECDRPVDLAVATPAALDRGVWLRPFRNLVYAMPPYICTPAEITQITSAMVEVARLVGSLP
Briefly: Mycobacterium tuberculosis BioA enzyme inhibitor Measured in Biochemical System Using Plate Reader - 2163-02_Inhibitor_Dose_CherryPick_Activity. Format: functional, Mycobacterium tuberculosis UT205.

The next experiment addresses T4, Interleukin-8 (Homo sapiens, UniProt P10145).
T4 sequence (P10145 whole entry): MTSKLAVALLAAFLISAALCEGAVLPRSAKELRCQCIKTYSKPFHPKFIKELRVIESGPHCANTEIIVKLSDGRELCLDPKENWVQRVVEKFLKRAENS
The experiment can be described thus: Dose Response confirmation of uHTS small molecule hits for cystic fibrosis induced NFkb Inhibitors in a PAF-induced IL8 counterscreen. It counts as functional. Particulars: read-out: IC50_Mean.

Experiment [8] concerns the target Dual specificity protein phosphatase 3 (Homo sapiens, UniProt P51452). Briefly: VHR phosphatase inhibition, dose response, selectivity assay for STEP inhibitor project, biochemical (AID 602374). Particulars: read-out: IC50_Mean. Format: functional.
Experiment [9] has as its target T5, Low molecular weight phosphotyrosine protein phosphatase (Homo sapiens, UniProt P24666).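 Further: Dose-response confirmation assay measuring inhibition of LMPTP enzyme activity by fluorescence intensity read-out.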
T5 sequence (P24666 whole entry): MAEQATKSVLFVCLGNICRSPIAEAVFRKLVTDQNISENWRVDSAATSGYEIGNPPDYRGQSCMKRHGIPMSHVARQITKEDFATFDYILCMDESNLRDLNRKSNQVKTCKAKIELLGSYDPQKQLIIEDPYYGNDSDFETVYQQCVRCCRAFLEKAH
Format: functional. Particulars: read-out: IC50_Mean.

In another experiment the test system is Streptococcus. Briefly: GAS UMAA2166 growth inhibition – luminescence, BacTiterGlo, counter-screen for streptokinase expression inhibitor project, dose response (AID 1915).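 Further: potency for reduction of bacterial viability or growth.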 It counts as functional, organism-based.
Experiment [10] addresses T6, Tyrosine-protein phosphatase non-receptor type 11 (Homo sapiens, UniProt Q06124).
T6 sequence (Q06124 whole entry): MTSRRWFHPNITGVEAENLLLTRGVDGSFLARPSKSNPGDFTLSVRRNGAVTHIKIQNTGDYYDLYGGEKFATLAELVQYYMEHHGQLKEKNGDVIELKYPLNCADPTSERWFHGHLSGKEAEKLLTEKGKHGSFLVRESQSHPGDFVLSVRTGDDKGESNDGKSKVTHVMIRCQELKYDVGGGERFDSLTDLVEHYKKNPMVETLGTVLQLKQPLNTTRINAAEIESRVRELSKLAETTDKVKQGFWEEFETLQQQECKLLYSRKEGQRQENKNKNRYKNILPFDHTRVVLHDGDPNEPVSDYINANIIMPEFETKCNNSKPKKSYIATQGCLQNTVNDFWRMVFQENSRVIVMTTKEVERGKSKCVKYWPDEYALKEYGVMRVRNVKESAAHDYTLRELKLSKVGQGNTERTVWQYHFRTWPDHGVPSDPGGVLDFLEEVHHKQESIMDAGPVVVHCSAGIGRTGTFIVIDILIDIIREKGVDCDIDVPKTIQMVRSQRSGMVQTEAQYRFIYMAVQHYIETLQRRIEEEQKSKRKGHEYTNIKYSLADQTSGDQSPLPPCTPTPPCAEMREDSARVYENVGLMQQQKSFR
Briefly: PTPN11 enzyme inhibitors – biochemical, selectivity assay for STEP inhibitor project, dose response (AID 602367). Format: functional. Particulars: read-out: IC50_Mean.

The target in experiment [11] is T7, Tyrosine-protein phosphatase non-receptor type 5 (Homo sapiens, UniProt P54829).
T7 sequence (P54829 whole entry): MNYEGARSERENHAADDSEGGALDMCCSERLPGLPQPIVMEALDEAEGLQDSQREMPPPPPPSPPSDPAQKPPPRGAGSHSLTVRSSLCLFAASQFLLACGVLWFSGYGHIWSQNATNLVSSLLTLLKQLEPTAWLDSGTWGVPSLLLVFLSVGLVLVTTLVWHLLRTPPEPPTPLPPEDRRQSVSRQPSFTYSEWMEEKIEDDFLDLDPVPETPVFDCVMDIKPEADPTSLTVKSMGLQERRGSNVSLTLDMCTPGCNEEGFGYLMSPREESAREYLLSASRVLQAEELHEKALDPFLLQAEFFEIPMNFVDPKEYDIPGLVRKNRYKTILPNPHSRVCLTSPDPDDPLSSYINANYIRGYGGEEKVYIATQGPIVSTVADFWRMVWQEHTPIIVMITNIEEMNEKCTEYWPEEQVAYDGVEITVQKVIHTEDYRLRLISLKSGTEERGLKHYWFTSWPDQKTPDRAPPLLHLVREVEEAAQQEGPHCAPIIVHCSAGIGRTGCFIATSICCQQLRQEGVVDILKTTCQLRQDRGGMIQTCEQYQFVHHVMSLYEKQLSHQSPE
Briefly: PTPN5 enzyme inhibition – biochemical, fluorescence intensity, uHTS hits, confirmation (AID 602372). Particulars: read-out: IC50_Mean. It counts as functional.

The test system of experiment [12] is Streptococcus sp. 'group A'. The experiment can be described thus: Streptococcus pyogenes SK(-)GAS viability under kanamycin – luminescence, BacTiterGlo, confirmation, counter-screen for streptokinase expression inhibitor project, dose response (AID 1900). Format: functional, organism-based. On the technique in general: The purpose of a counterscreen is to sort out artefacts and off-target activity.

The target in experiment [13] is T8, Aryl hydrocarbon receptor (Homo sapiens, UniProt P35869).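 Further: confirmatory quantitative high-throughput screen measuring activation of the AhR signaling pathway.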
T8 sequence (P35869 whole entry): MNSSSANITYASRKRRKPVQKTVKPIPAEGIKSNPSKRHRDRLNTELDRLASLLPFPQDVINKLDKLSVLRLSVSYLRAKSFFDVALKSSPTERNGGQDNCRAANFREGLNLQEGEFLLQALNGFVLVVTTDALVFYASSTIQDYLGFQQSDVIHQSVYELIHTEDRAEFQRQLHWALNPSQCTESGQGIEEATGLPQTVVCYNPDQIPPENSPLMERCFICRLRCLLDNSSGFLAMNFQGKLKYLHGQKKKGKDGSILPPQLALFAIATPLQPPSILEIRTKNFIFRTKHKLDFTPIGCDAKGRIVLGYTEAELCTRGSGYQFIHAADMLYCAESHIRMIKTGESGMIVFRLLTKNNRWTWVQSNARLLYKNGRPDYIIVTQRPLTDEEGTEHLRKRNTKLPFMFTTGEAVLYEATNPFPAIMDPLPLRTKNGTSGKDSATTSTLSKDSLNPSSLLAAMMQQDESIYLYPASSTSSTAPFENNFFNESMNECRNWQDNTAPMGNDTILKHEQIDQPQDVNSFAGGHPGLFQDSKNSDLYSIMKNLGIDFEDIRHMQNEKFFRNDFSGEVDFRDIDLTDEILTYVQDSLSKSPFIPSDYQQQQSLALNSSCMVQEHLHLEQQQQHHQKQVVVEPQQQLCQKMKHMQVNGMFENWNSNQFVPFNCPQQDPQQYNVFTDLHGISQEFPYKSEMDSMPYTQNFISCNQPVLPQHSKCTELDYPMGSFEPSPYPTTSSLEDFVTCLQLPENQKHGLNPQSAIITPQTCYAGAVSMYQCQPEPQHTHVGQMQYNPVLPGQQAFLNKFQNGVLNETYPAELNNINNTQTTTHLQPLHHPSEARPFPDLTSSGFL
Particulars: Potency.

Calls of active or inactive are those of the source.

A word on the AC50: it is the concentration giving half of the maximal activity seen.

T2 sequence (P65502 whole entry): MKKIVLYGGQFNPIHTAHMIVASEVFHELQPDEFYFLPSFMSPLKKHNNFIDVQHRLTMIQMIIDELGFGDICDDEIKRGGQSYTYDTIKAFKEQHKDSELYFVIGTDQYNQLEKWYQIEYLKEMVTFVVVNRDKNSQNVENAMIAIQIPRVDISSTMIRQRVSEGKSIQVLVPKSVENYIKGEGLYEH
Sequence of Dual specificity protein phosphatase 3 (P51452 whole entry): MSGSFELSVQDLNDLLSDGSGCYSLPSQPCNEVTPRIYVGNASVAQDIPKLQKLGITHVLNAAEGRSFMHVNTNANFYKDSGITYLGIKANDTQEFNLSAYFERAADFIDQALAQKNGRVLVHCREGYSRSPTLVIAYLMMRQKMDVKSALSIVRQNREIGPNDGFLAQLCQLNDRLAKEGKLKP

On to `COc1ccc(C(=O)Oc2cccc3cccnc23)cc1[N+](=O)[O-]`, for which the concentration at half-maximal activity (AC50) in [1] was 135 µM (active).
Consider `CCOc1ccc(S(=O)(=O)n2ccc(C)n2)c2ccccc12`, for which the IC50 in [2] was < 0.368 µM (active); in experiment [3], 11.7 µM (active). Also, in experiment [4], the EC50 is 21.2 µM (active).
Take `Cc1ccc(-n2nc3c(c2NC(=O)/C=C\c2ccc4c(c2)OCO4)CSC3)c(C)c1`: the IC50 is 21.5 µM (active) in experiment [5] and 5.88 µM (active) in [6].
On to `CN1c2ccc(-c3cccc(F)c3)cc2[C@H]2[C@H](CCN2C(=O)c2ccc3c(c2)OCO3)[C@H]1CO`, for which the half-maximal activity concentration (AC50) in [7] was 0.075 µM (active).
Turning to `C#CCN(C[C@@H]1[C@@H](OC(=O)NC2CC2)[C@@H](OC(=O)NC2CC2)Cn2c(=O)ccc(=O)n21)S(=O)(=O)c1ccc(C)cc1`, the IC50 on Interleukin-8 was 6.06 µM (active).
Consider `C=CC1=C(C(=O)O)N2C(=O)C(NC(=O)Cc3ccccc3)C2SC1` (centres undefined), for which the IC50 in experiment [8] is 7.17 µM (active); in [9] it was 42.8 µM (inactive); in [10], 4.42 µM (active); in experiment [11], 52.9 µM (inactive). The EC50 in the experiment on Streptococcus was 0.269 µM (active); in experiment [12] it was 0.169 µM (active).
As to `Nc1ccccc1C(=O)NNC(=O)/C(O)=C/C(=O)c1ccccc1`, the IC50 in [5] was 12 µM (active); in experiment [6] it was 4.63 µM (active).
On to `CCNc1nc(NCC)nc(SC)n1`, for which, in experiment [13], the AC50 is 0.447 µM (inconclusive).
For `O=C(Nc1nnc(C2=COCCO2)o1)c1ccc(Cl)cc1`, the AC50 in experiment [1] is 85.8 µM (active).
In the case of `N#Cc1ccsc1NC(=O)c1cccc([N+](=O)[O-])c1`, the IC50 in experiment [2] is 3.12 µM (active); in experiment [3], > 20 µM (inactive). Moreover, the EC50 in [4] is 4.08 µM (active).
On to `Cc1c(NC(=O)c2cc3ccccc3o2)cccc1-n1cnnn1`, for which the AC50 in [7] was 6.18 µM (active).
Turning to `CN1CCC2(CC1)N=C(c1ccc(F)cc1)C(=S)N2`, the IC50 in experiment [8] was 2.69 µM (active); in experiment [10], 8.94 µM (active); in experiment [11], 41.6 µM (inactive).
On to `Cc1ccc(S(=O)(=O)N2CCCCC2)cc1C(=O)N(CCc1ccccc1)Cc1ccccc1`, for which the IC50 in experiment [2] was 1.19 µM (active); in [3], 19.3 µM (active). In addition, the EC50 in experiment [4] is > 53 µM (inactive).
`CO[C@H]1CN(C)C(=O)c2ccc(NC(C)=O)cc2OC[C@@H](C)N(C(=O)C2CCCCC2)C[C@H]1C`: in experiment [7], the AC50 is 6.6 µM (active).
